Read-outs that look alike come from different tables or passages of the source.
Legend:
5HT2C receptors [1] = molecular target: T1, 5HT2C receptors (Homo sapiens, UniProt P28335); test: Human 5-HT2C functional assay in 1321N1 cells (intracellular calcium, FLIPR); format: cell-based; design: expressed in transfected cells; host or cells: 1321N1 cells; conditions: 5-HT2c agonist activity, maximum calcium response
T1 sequence (P28335 33-458): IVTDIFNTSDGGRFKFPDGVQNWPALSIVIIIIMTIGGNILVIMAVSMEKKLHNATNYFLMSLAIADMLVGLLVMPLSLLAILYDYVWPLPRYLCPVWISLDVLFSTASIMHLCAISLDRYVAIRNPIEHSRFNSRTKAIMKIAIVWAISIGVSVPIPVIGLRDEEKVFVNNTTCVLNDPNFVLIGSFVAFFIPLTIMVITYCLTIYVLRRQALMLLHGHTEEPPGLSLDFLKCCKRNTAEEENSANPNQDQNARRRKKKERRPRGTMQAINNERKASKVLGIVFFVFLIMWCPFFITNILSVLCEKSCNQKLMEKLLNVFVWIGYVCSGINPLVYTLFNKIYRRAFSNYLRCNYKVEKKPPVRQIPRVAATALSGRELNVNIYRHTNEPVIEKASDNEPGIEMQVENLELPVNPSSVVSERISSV
Procedure: (ii) Human 5-HT2C Functional Assay in 1321N1 Cells
Functional activity was determined by testing the effect of the compounds on intracellular calcium levels in 1321N1 cells stably transfected with the human 5-HT2C receptor. Cells were seeded into 96-well plates at 50,000 cells/well and grown overnight in tissue culture medium (DMEM with Glutamax I (Invitrogen), containing 10% dFCS, 50 μg/mL Gentamicin, 400 μg/mL Geneticin) at 37° C. and 7% CO2. Growth medium was replaced by medium without dFCS for overnight incubation. Cells were loaded with a fluorescent calcium-sensitive dye in the presence of 1% probenicid according to the manufacturer's protocol (Fluo4 AM, Molecular Devices). Serial compound dilutions (final concentrations 10^−10 to 10^−5 M) were added to the cells either alone or in the presence of serotonin (10^−9 M) and the maximum calcium response was determined using a FLIPR instrument (Molecular Devices). Concentration-response curves were fitted using a four-parameter logistic equation (GraphPad Prism). The concentration at which the compound exerts half its maximal effect is named the ‘effective concentration 50’ or ‘EC50’ and is listed in Table 2.

[2] = molecular target: T2, human serotonin 5-HT2c receptor (Homo sapiens, UniProt P28335); test: Human 5-HT2C receptor radioligand binding assay (agonist site, [125I]DOI); conditions: 5-HT2c agonist site; transfected CHO cell membranes; 0.2 nM [125I](±)DOI
T2 construct: expressed in transfected cells; host or cells: CHO cells (membrane homogenates)
T2 sequence (P28335 33-458): T1 sequence (P28335 33-458)
Procedure: (i) Human 5-HT2C Receptor Radioligand Binding Assay
Affinity of compounds for the agonist site of the […], receptor in transfected CHO cells was determined in a radioligand binding assay essentially as described by Bryant, H. U., et al., Life Sciences (1996) 59(15), 1259-1268.

5HT2B receptors = molecular target: T3, 5HT2B receptors (Homo sapiens, UniProt P41595); test: Human 5-HT2B functional high throughput screening assay in CHO-K1 cells (calcium flux); format: cell-based; conditions: for EC50: CHO-K1 cells, calcium flux; for Emax: 5-HT2B, maximum functional response as percentage relative to the effect of serotonin
T3 construct: expressed in transfected cells; host or cells: CHO-K1 cells
Summary of the method: (§1)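 Agonism is measured as intracellular calcium increase in receptor-overexpressing CHO-K1 cells, read by FLIPR at 25 °C. Responses are expressed relative to serotonin, with EC50 and Emax derived from a 4-parameter logistic curve over 6 concentrations starting at 10 μM.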

5HT2C receptors [3] = molecular target: T1, 5HT2C receptors; test: Human 5-HT2C functional high throughput screening assay in CHO-K1 cells (calcium flux); format: cell-based; design: expressed in transfected cells; host or cells: CHO-K1 cells; conditions: for EC50: CHO-K1 cells, calcium flux; for Emax: CHO-K1, 5-HT2C, maximum functional response as percentage relative to the effect of serotonin
Summary of the method: as §1

[4] = 5-HT2B agonist activity, read-out: EC50
[5] = 5-HT2C agonist activity, read-out: EC50

T3 sequence (P41595 whole entry): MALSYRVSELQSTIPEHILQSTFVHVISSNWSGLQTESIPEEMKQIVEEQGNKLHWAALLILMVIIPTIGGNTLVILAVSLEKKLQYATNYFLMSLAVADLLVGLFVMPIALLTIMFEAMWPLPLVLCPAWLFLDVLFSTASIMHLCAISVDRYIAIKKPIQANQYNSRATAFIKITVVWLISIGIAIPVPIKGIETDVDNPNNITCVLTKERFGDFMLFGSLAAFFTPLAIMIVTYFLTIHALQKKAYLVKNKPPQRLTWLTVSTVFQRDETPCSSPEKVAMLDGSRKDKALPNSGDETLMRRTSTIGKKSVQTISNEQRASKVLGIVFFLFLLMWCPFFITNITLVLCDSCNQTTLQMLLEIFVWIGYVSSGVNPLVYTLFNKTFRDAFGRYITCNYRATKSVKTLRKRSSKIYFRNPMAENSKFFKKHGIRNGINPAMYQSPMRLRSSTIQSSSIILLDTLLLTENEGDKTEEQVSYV

For `O=C1NC[C@@H]2CN(Cc3ccccc3Cl)C[C@H]2c2ccccc21` (relative stereo) [Example 33, Trans-2-(2-chlorobenzyl)-1,2,3,3a,4,5-hexahydrobenzo[c]pyrrolo[3,4-e]azepin-6(10bH)-one], the EC50 (5HT2C receptors [1]) was 32.9 nM.

`O=C1NC[C@@H]2CN(Cc3cc(Cl)cc(Cl)c3)C[C@@H]2c2ccccc21` (relative stereo) [Example 40, Cis-2-(3,5-dichlorobenzyl)-1,2,3,3a,4,5-hexahydrobenzo[c]pyrrolo[3,4-e]azepin-6(10bH)-one] showed an EC50 (5HT2C receptors [1]) of 11.3 nM.

`O=C1NC[C@@H]2CN(Cc3cc(Cl)ccc3Cl)C[C@H]2c2ccccc21` (relative stereo) [Example 31, Trans-2-(2,5-dichlorobenzyl)-1,2,3,3a,4,5-hexahydrobenzo[c]pyrrolo[3,4-e]azepin-6(10bH)-one] gave an EC50 (5HT2C receptors [1]) of 4.05 nM.

In the case of `O=C1NC[C@@H]2CN(Cc3cccc(Cl)c3)C[C@H]2c2ccccc21` (relative stereo) [Example 32, Trans-2-(3-chlorobenzyl)-1,2,3,3a,4,5-hexahydrobenzo[c]pyrrolo[3,4-e]azepin-6(10bH)-one], the EC50 (5HT2C receptors [1]) is reported as 19.3 nM.

With `Cc1ccc(CN2C[C@H]3CNC(=O)c4ccccc4[C@@H]3C2)cc1C` (relative stereo) [Example 25, Trans-2-(3,4-dimethylbenzyl)-1,2,3,3a,4,5-hexahydrobenzo[c]pyrrolo[3,4-e]azepin-6(10bH)-one] the EC50 (5HT2C receptors [1]) was 40.2 nM.

In the case of `O=C1NC[C@@H]2CNC[C@H]2c2ccccc21` (relative stereo) [Example 2, Trans-1,2,3,3a,4,5-hexahydrobenzo[c]pyrrolo[3,4-e]azepin-6(10bH)-one], the Ki [2] is reported as 22 nM.

In the case of `O=C1NC[C@@H]2CN(Cc3ccccc3)C[C@H]2c2ccccc21` (racemic) [Example 1, Trans-2-benzyl-1,2,3,3a,4,5-hexahydrobenzo[c]pyrrolo[3,4-e]azepin-6(10bH)-one], the EC50 (5HT2C receptors [1]) is reported as 11.2 nM, the EC50 (5HT2B receptors; [4]) is reported as over 10000 nM and the Emax (5HT2B receptors) is reported as “inactive”. It also gave an EC50 (5HT2C receptors [3]; [5]) of 20 nM and an Emax (5HT2C receptors [3]; read-out: Emax) of over 120%.

`O=C1NC[C@@H]2CN(Cc3cccc(F)c3)C[C@@H]2c2ccccc21` (relative stereo) [Example 42, Cis-2-(3-fluorobenzyl)-1,2,3,3a,4,5-hexahydrobenzo[c]pyrrolo[3,4-e]azepin-6(10bH)-one] showed an EC50 (5HT2C receptors [1]) of 18.1 nM.

With `Cc1ccc(CN2C[C@H]3CNC(=O)c4ccccc4[C@@H]3C2)c(C)c1` (relative stereo) [Example 24, Trans-2-(2,4-dimethylbenzyl)-1,2,3,3a,4,5-hexahydrobenzo[c]pyrrolo[3,4-e]azepin-6(10bH)-one] the EC50 (5HT2C receptors [1]) was 45.6 nM.

`Cc1cc(C)cc(CN2C[C@H]3CNC(=O)c4ccccc4[C@@H]3C2)c1` (relative stereo) [Example 22, Trans-2-(3,5-dimethylbenzyl)-1,2,3,3a,4,5-hexahydrobenzo[c]pyrrolo[3,4-e]azepin-6(10bH)-one] showed an EC50 (5HT2C receptors [1]) of 5.22 nM.

Compound `Cc1ccc(C)c(CN2C[C@H]3CNC(=O)c4ccccc4[C@@H]3C2)c1` (relative stereo) [Example 23, Trans-2-(2,5-dimethylbenzyl)-1,2,3,3a,4,5-hexahydrobenzo[c]pyrrolo[3,4-e]azepin-6(10bH)-one] has an EC50 (5HT2C receptors [1]) of 8.85 nM.

`O=C1NC[C@@H]2CN(Cc3cccc(Cl)c3)C[C@@H]2c2ccccc21` (relative stereo) [Example 41, Cis-2-(3-chlorobenzyl)-1,2,3,3a,4,5-hexahydrobenzo[c]pyrrolo[3,4-e]azepin-6(10bH)-one] was tested, and the EC50 (5HT2C receptors [1]) was 4.94 nM.

For `N#Cc1cccc(CN2C[C@H]3CNC(=O)c4ccccc4[C@@H]3C2)c1` (relative stereo) [Example 36, 3-((Trans-6-oxo-1,3a,4,5,6,10b-hexahydrobenzo[c]pyrrolo[3,4-e]azepin-2(3H)-yl)methyl)benzonitrile], the EC50 (5HT2C receptors [1]) was 77.2 nM.

`O=C1NC[C@@H]2CN(Cc3ccccc3)C[C@@H]2c2ccccc21` (relative stereo) [Example 3, Cis-2-benzyl-1,2,3,3a,4,5-hexahydrobenzo[c]pyrrolo[3,4-e]azepin-6(10bH)-one] was tested, and the EC50 (5HT2C receptors [1]) was 101 nM.

Work on `O=C1NC[C@@H]2CNC[C@@H]2c2ccccc21` (relative stereo) [Example 4, Cis-1,2,3,3a,4,5-hexahydrobenzo[c]pyrrolo[3,4-e]azepin-6(10bH)-one] yielded an EC50 (5HT2C receptors [1]) of 202 nM.

`Cc1cccc(CN2C[C@H]3CNC(=O)c4ccccc4[C@@H]3C2)c1` (relative stereo) [Example 26, Trans-2-(3-methylbenzyl)-1,2,3,3a,4,5-hexahydrobenzo[c]pyrrolo[3,4-e]azepin-6(10bH)-one] was tested, and the EC50 (5HT2C receptors [1]) was 10.3 nM.

`O=C1NC[C@@H]2CN(Cc3cccc4ccccc34)C[C@@H]2c2ccccc21` (relative stereo) [Example 43, Cis-2-(naphthalen-1-ylmethyl)-1,2,3,3a,4,5-hexahydrobenzo[e]pyrrolo[3,4-e]azepin-6(10bH)-one] showed an EC50 (5HT2C receptors [1]) of 81.9 nM.

For `O=C1NC[C@@H]2CN(Cc3cccc(F)c3)C[C@H]2c2ccccc21` (relative stereo) [Example 34, Trans-2-(3-fluorobenzyl)-1,2,3,3a,4,5-hexahydrobenzo[c]pyrrolo[3,4-e]azepin-6(10bH)-one], the EC50 (5HT2C receptors [1]) was 12 nM.

Compound `O=C1NC[C@@H]2CN(Cc3ccccc3F)C[C@H]2c2ccccc21` (relative stereo) [Example 35, Trans-2-(2-fluorobenzyl)-1,2,3,3a,4,5-hexahydrobenzo[c]pyrrolo[3,4-e]azepin-6(10bH)-one] has an EC50 (5HT2C receptors [1]) of 12.3 nM.

With `O=C1NC[C@@H]2CN(Cc3ccccc3)C[C@H]2c2ccc(OCCc3cccc(F)c3)cc21` (relative stereo) [Example 119, Trans-2-benzyl-8-(3-fluorophenethoxy)-1,2,3,3a,4,5-hexahydrobenzo[e]pyrrolo[3,4-c]azepin-6(10bH)-one] the EC50 (5HT2B receptors; [4]) was over 10000 nM, the Emax (5HT2B receptors) was “inactive” and the EC50 (5HT2C receptors [3]; [5]) was 100 nM. For the same compound, the Emax (5HT2C receptors [3]; read-out: Emax) was over 120%.

`CCS(=O)(=O)c1cccc(-c2ccc3c(c2)C(=O)NC[C@@H]2CNC[C@@H]32)c1` (relative stereo) [Example 250, Trans-8-(3-(ethylsulfonyl)phenyl)-1,2,3,3a,4,5-hexahydrobenzo[c]pyrrolo[3,4-e]azepin-6(10bH)-one] was tested, and the EC50 (5HT2B receptors; [4]) was over 10000 nM, the Emax (5HT2B receptors) was “inactive” and the EC50 (5HT2C receptors [3]; [5]) was 3 nM. It also gave an Emax (5HT2C receptors [3]; read-out: Emax) of 105%.

`CN1C[C@@H]2CNC(=O)c3cc(OCc4ccccc4)ccc3[C@H]2C1` [Example 274, (3aS,10bS)-8-(Benzyloxy)-2-methyl-1,2,3,3a,4,5-hexahydrobenzo[e]pyrrolo[3,4-c]azepin-6(10bH)-one] was tested, and the Emax (5HT2B receptors) was “inactive”, the EC50 (5HT2B receptors; EC50, 5-HT2B agonist activity) was over 10000 nM and the Emax (5HT2C receptors [3]) was over 120%. The EC50 (5HT2C receptors [3]; EC50, 5-HT2C agonist activity) was 3 nM.

In the case of `C[C@H](Cc1ccccc1)Oc1ccc2c(c1)C(=O)NC[C@@H]1CN(Cc3ccccc3)C[C@@H]21` (mixture of isomers) [Example 118, Trans-2-benzyl-8-((R)-1-phenylpropan-2-yloxy)-1,2,3,3a,4,5-hexahydrobenzo[e]pyrrolo[3,4-c]azepin-6(10bH)-one], the EC50 (5HT2B receptors; [4]) is reported as over 10000 nM, the Emax (5HT2B receptors) is reported as “inactive” and the EC50 (5HT2C receptors [3]; [5]) is reported as 300 nM. It also gave an Emax (5HT2C receptors [3]; read-out: Emax) of over 120%.

In the case of `O=C1NC[C@@H]2CN(Cc3ccccc3)C[C@H]2c2c1sc1ccccc21` (relative stereo) [Example 97, Trans-2-benzyl-2,3,3a,4,5,11c-hexahydro[1]benzothieno[2,3-c]pyrrolo[3,4-e]azepin-6(1H)-one], the EC50 (5HT2B receptors; [4]) is reported as 4000 nM, the Emax (5HT2B receptors; CHO-K1, read-out: Emax) is reported as 40% and the EC50 (5HT2C receptors [3]; [5]) is reported as 1000 nM. It also gave an Emax (5HT2C receptors [3]; read-out: Emax) of 110%.

From patent publication US8846951B2 (AbbVie Inc., priority 2009, dated 2014)
